Assay results as given in ChEMBL document CHEMBL1201862, “PubChem BioAssay data set” (2004).
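Five concentrations, 48 hours, 96-well plates. GI50: concentration for 50% inhibition of growth.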 The source made the active and inactive calls. Rule as the data show it: active = GI50 up to about 1.1 µM and inactive = higher.

How the values were obtained:
Test in all cases: NCI tumour cell line growth inhibition, 48 h
U-251 = tested on: U-251
SK-MEL-28 = tested on: SK-MEL-28
NCI-H522 = tested on: NCI-H522
786-0 = tested on: 786-0
SK-OV-3 = tested on: SK-OV-3
EKVX = tested on: EKVX
HCT-15 = tested on: HCT-15
MOLT-4 = tested on: MOLT-4
DU-145 = tested on: DU-145
BT-549 = tested on: BT-549
SK-MEL-2 = tested on: SK-MEL-2
UACC-62 = tested on: UACC-62
HOP-92 = tested on: HOP-92
Hs-578T = tested on: Hs-578T
DMS-114 = tested on: DMS-114
OVCAR-5 = tested on: OVCAR-5
A498 = tested on: A498
MDA-MB-435 = tested on: MDA-MB-435
UACC-257 = tested on: UACC-257
SN12C = tested on: SN12C

SMILES: CC1CC(C)CC(C)C(O)/C(C#N)=C/C=C/CC(C2CCCC2C(=O)O)OC(=O)CC(O)C(C)C1 (configuration not stated)
- GI50 (U-251): 0.0115 µM (active)
- GI50 (SK-MEL-28): < 0.0111 µM (active)
- GI50 (NCI-H522): < 0.01 µM (active)
- GI50 (786-0): < 0.0126 µM (active)
- GI50 (SK-OV-3): 0.0161 µM (active)
- GI50 (EKVX): 0.064 µM (active)
- GI50 (HCT-15): 0.0131 µM
- GI50 (MOLT-4): 0.022 µM (active)
- GI50 (DU-145): 0.111 µM (active)
- GI50 (BT-549): 0.0143 µM (active)
- GI50 (SK-MEL-2): < 0.01 µM (active)
- GI50 (UACC-62): 0.0101 µM (active)
- GI50 (HOP-92): < 0.01 µM (active)
- GI50 (Hs-578T): < 0.01 µM (active)
- GI50 (DMS-114): < 0.01 µM (active)
- GI50 (OVCAR-5): < 0.01 µM (active)
- GI50 (A498): 0.0105 µM (active)
- GI50 (MDA-MB-435): < 0.01 µM (active)
- GI50 (UACC-257): 0.0154 µM (active)
- GI50 (SN12C): 0.029 µM (active)

SMILES: COc1ccc2cc3[n+](cc2c1OC)CCc1cc2c(cc1-3)OCO2 [BERBERINE CHLORIDE]
- GI50 (SK-MEL-28): 22.2 µM (inactive)
- GI50 (786-0): > 49.4 µM (inactive)
- GI50 (SK-OV-3): 84.5 µM (inactive)
- GI50 (DU-145): > 44.5 µM (inactive)
- GI50 (SK-MEL-2): 25.3 µM (inactive)
- GI50 (UACC-62): 29.9 µM (inactive)
- GI50 (HOP-92): 36.7 µM (inactive)
- GI50 (Hs-578T): 10 µM (inactive)
- GI50 (DMS-114): 4.23 µM (inactive)
- GI50 (OVCAR-5): 58.3 µM (inactive)
- GI50 (A498): 95.9 µM (inactive)
- GI50 (MDA-MB-435): 12.8 µM (inactive)

SMILES: Cc1ccc(S(=O)(=O)N/N=C/c2oc(-c3ccccc3Cl)c(-c3ccccc3Cl)c2[N+](=O)[O-])cc1
- GI50 (SK-MEL-28): 22.9 µM (inactive)
- GI50 (NCI-H522): 6.07 µM (inactive)
- GI50 (786-0): 19.5 µM (inactive)
- GI50 (SK-OV-3): 45 µM (inactive)
- GI50 (EKVX): 31.5 µM (inactive)
- GI50 (MOLT-4): 11.5 µM (inactive)
- GI50 (SK-MEL-2): 25 µM (inactive)
- GI50 (UACC-62): 17.8 µM (inactive)
- GI50 (HOP-92): 28.5 µM (inactive)
- GI50 (DMS-114): 17.3 µM (inactive)
- GI50 (OVCAR-5): 17.5 µM (inactive)
- GI50 (A498): 20.8 µM (inactive)
- GI50 (UACC-257): 37.2 µM (inactive)
- GI50 (SN12C): 14.8 µM (inactive)

SMILES: CCCCCCC1=NOC(C(c2cc[nH]c2)N(C)[C@H](C(=O)OC)C(C)C)C1 (some centres not stated)
- GI50 (U-251): 49.5 µM (inactive)
- GI50 (SK-MEL-28): 75 µM (inactive)
- GI50 (NCI-H522): 16.1 µM (inactive)
- GI50 (786-0): 58.9 µM (inactive)
- GI50 (SK-OV-3): > 100 µM (inactive)
- GI50 (EKVX): 19.8 µM (inactive)
- GI50 (MOLT-4): 19.4 µM (inactive)
- GI50 (SK-MEL-2): 25.8 µM (inactive)
- GI50 (UACC-62): 37.1 µM (inactive)
- GI50 (HOP-92): 51.4 µM (inactive)
- GI50 (DMS-114): 33.3 µM (inactive)
- GI50 (OVCAR-5): > 100 µM (inactive)
- GI50 (A498): > 100 µM (inactive)
- GI50 (UACC-257): 37.7 µM (inactive)
- GI50 (SN12C): 20.6 µM (inactive)

SMILES: COC(=O)C12OCC34C(CC5C(C)C6=CC(=O)OC6=CC5(C)C3C(O)C1O)OC(=O)C(O)C24 (configuration not stated)
- GI50 (U-251): 0.233 µM (active)
- GI50 (SK-MEL-28): 0.169 µM (active)
- GI50 (NCI-H522): 0.533 µM (active)
- GI50 (786-0): 0.594 µM (active)
- GI50 (SK-OV-3): 5.16 µM (inactive)
- GI50 (EKVX): 0.716 µM (active)
- GI50 (HCT-15): 1.48 µM
- GI50 (MOLT-4): 0.153 µM (active)
- GI50 (SK-MEL-2): 0.446 µM (active)
- GI50 (UACC-62): 0.319 µM (active)
- GI50 (HOP-92): 0.231 µM (active)
- GI50 (DMS-114): 0.859 µM (active)
- GI50 (OVCAR-5): 2.56 µM (inactive)
- GI50 (A498): 0.544 µM (active)
- GI50 (UACC-257): 1.5 µM (inactive)
- GI50 (SN12C): 1.48 µM (inactive)

SMILES: COC(=O)C(=O)C(C(=O)C(=O)Nc1cccc(C(C)=O)c1)c1nc2ccccc2nc1O (configuration not stated)
- GI50 (SK-MEL-28): > 100 µM (inactive)
- GI50 (NCI-H522): > 100 µM (inactive)
- GI50 (786-0): > 100 µM (inactive)
- GI50 (SK-OV-3): > 100 µM (inactive)
- GI50 (EKVX): 48.3 µM (inactive)
- GI50 (HCT-15): > 100 µM
- GI50 (MOLT-4): > 100 µM (inactive)
- GI50 (SK-MEL-2): > 100 µM (inactive)
- GI50 (UACC-62): > 100 µM (inactive)
- GI50 (HOP-92): > 100 µM (inactive)
- GI50 (DMS-114): > 100 µM (inactive)
- GI50 (OVCAR-5): > 100 µM (inactive)
- GI50 (A498): > 100 µM (inactive)
- GI50 (UACC-257): > 100 µM (inactive)

SMILES: O=C(O)C[C@@H](Cl)[C@H](NC(=O)OCc1ccccc1)C(=O)O
- GI50 (U-251): > 100 µM (inactive)
- GI50 (SK-MEL-28): > 100 µM (inactive)
- GI50 (NCI-H522): > 100 µM (inactive)
- GI50 (786-0): > 100 µM (inactive)
- GI50 (SK-OV-3): > 100 µM (inactive)
- GI50 (EKVX): > 100 µM (inactive)
- GI50 (HCT-15): > 100 µM
- GI50 (MOLT-4): > 100 µM (inactive)
- GI50 (SK-MEL-2): > 100 µM (inactive)
- GI50 (UACC-62): > 100 µM (inactive)
- GI50 (HOP-92): > 100 µM (inactive)
- GI50 (DMS-114): > 100 µM (inactive)
- GI50 (OVCAR-5): > 100 µM (inactive)
- GI50 (A498): > 100 µM (inactive)
- GI50 (UACC-257): > 100 µM (inactive)
- GI50 (SN12C): > 100 µM (inactive)
